# Results taken from publication PMC10709440, “High-throughput ligand profile characterization in novel cell lines expressing seven heterologous insect olfactory receptors for the detection of volatile plant biomarkers” (Scientific Reports, 2023).
# Several values for one entry are separate records, joined by “and”; a condition that tells them apart may be missing. Equal values may be shown once. Read-outs that look alike come from different tables or passages of the source.
# Experiments:
# Drosophila OR10a = target: T1, Drosophila OR10a (Drosophila melanogaster, UniProt Q9VYZ1); test: Calcium ion fluorescence (GCaMP6) assay, OR10a stable HEK293 cell line; format: cell-based
# T1 construct: expressed in transfected cells
# T1 sequence (Q9VYZ1 1-406): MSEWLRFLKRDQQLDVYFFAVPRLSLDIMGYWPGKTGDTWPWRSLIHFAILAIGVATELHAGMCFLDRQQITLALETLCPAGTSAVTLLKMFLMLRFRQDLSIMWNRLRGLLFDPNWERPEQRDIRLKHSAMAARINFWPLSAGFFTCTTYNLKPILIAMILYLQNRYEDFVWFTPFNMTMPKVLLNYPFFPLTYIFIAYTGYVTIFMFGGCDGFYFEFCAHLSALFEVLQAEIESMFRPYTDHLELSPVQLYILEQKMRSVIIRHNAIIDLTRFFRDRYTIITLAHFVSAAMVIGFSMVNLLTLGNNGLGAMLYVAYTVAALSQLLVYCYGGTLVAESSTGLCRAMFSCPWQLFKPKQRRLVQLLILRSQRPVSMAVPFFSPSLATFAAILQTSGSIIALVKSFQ
# T1 sequence (Q9VNB5 1-486 partner): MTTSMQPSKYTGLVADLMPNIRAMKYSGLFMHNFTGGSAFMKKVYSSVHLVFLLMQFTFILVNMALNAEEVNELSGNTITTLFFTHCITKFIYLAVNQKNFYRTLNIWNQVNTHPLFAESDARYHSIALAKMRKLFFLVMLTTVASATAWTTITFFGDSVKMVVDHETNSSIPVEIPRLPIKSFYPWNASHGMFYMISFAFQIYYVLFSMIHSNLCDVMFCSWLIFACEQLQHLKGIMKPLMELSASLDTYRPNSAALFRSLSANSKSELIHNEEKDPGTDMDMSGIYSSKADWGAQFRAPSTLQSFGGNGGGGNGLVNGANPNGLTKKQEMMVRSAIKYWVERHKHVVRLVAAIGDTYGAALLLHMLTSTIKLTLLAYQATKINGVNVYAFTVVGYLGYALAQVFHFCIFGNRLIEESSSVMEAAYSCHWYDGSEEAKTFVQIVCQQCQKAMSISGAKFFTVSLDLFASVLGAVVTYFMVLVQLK
# Protocol: (§1) These VUAA1 normalized ∆F values were used to compare the different receptors and ligands.
# (§2) The concentration-dependent effect of the reference ligands on their cognate cell lines was examined in more detail. Twelve different ligand concentrations were measured on each cell line in an overall 0.01 μM to 100 μM concentration range with 5 repetitions with three technical replicates each time.
# (§3) Twelve thousand to 18,000 cells were plated into each well of a black wall, transparent bottom 384-well microplate (Greiner) 48 h or 72 h before the measurements and were simultaneously treated with 1 μg/mL doxycycline. […] The plate has 24 columns, thus we could record responses in up to eight different cell lines in each plate. On the day of the experiment, the growth medium was replaced with 20 µL assay buffer/well (140 mM NaCl, 5 mM KCl, 2 mM CaCl2, 1 mM MgCl2, 5 mM HEPES-Na, 20 mM glucose, pH 7.3, 340 mOsm). […] Baseline fluorescence (F0) was recorded for 5 s, after which 7 µL VOC buffer (140 mM NaCl, 5 mM KCl, 2 mM CaCl2, 1 mM MgCl2, 5 mM HEPES-Na, 31 mM glucose, 0.1% DMSO, pH 7.3, 340 mOsm) was injected into each well in one row and the fluorescence response was recorded for an additional 30 s, at a rate of one read/sec. VOC solutions (VOC buffer with 4× concentration of the final measured VOC concentration, 9 µL/well was injected) were measured on the same wells in a second round with the same protocol. Each individual concentration of a specific VOC sample was recorded in three wells for the same cell line on the same microplate. The raw data were exported in xls file format, F0 and FMAX values, and the fluorescence intensity changes (∆F) were calculated in Excel (Microsoft) (Supplementary file Data summary.xlsx) using the following equation: ΔF=FMAX-F0/F0 (see also Fig. 1C). On each plate, we recorded the response of each cell line to 50 µM VUAA1. The average of these ∆F values of each cell line were used to calculate the VUAA1-normalized values for the rest of the plate, by dividing VOC response ∆F values by the average VUAA1 response ∆F value of the corresponding OR cell line. Each VOC-OR combination was measured three times as technical replicates. […] The average of these replicates were used as one ∆F and VUAA1-normalized ∆F in the following analysis.
# (§4) In the next rows we tested the reference VOCs (or other VOCs known to activate the corresponding cell lines), in order to test if all cell lines are responsive. The remaining rows were used to test VOCs with unknown effect.
# (§5) The recorded FMAX, F0, ∆F, VUAA1-normalized ∆F values, as well as the OR name, the name of the tested sample, and the final concentration for each well were copied into supplementary file Data summary.xlsx, that was used to summarize all the plates recorded. Here, the averages of the measurements were calculated for each receptor-VOC-concentration combination.
# Drosophila OR85b = target: T2, Drosophila OR85b (Drosophila melanogaster, UniProt Q9VHQ7); test: Calcium ion fluorescence (GCaMP6) assay, OR85b stable HEK293 cell line; format: cell-based; settings: for Average response: OR85b cell line, VUAA1-normalized response, mean of biological replicates; for DF norm AVERAGE OR85b: normalized fluorescence change, values below 0.05 threshold given as 0
# T2 construct: expressed in transfected cells
# T2 sequence (Q9VHQ7 1-390): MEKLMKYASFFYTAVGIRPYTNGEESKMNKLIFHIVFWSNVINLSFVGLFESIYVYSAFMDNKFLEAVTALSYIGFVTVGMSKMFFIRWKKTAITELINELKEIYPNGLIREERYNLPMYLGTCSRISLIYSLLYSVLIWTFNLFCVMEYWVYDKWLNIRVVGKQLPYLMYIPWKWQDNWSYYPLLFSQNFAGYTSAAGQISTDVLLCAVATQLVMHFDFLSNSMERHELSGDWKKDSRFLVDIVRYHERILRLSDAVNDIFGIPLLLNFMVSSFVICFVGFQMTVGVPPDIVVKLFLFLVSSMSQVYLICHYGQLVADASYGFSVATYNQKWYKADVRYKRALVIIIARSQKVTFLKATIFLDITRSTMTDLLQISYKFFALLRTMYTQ
# T2 sequence (Q9VNB5 1-486 partner): T1 sequence (Q9VNB5 1-486 partner)
# Protocol: as §1, §2, §3, §4, §5
# [1] = HEK293, 1 μM VOC, 50 μM VUAA1 = 1, responses not exceeding 0.05 considered 0, read-out: OR10a Average response (VUAA1-normalized)
# [2] = HEK293, 10 μM VOC, 50 μM VUAA1 = 1, responses not exceeding 0.05 considered 0, read-out: OR10a Average response (VUAA1-normalized)
# [3] = HEK293, 100 μM VOC, 50 μM VUAA1 = 1, responses not exceeding 0.05 considered 0, read-out: OR10a Average response (VUAA1-normalized)
# [4] = HEK293, read-out: OR10a response (VUAA1-normalized response), VOC concentration 1 μM
# [5] = HEK293, read-out: OR10a response (VUAA1-normalized response), VOC concentration 10 μM
# [6] = HEK293, read-out: OR10a response (VUAA1-normalized response), VOC concentration 100 μM
# [7] = HEK293, read-out: OR85b Average response (VUAA1-normalized)
# [8] = HEK293, read-out: OR85b response (VUAA1-normalized response)
# [9] = VOC concentration 0.15 (unit not given)
# [10] = VOC concentration 0.3 (unit not given)
# [11] = VOC concentration 0.6 (unit not given)
# [12] = VOC concentration 1.25 (unit not given)
# [13] = VOC concentration 2.5 (unit not given)
# [14] = VOC concentration 5 (unit not given)
# [15] = VOC concentration 10 (unit not given)
# [16] = VOC concentration 20 (unit not given)
# [17] = VOC concentration 40 (unit not given)
# [18] = VOC concentration 60 (unit not given)
# [19] = VOC concentration 80 (unit not given)
# [20] = VOC concentration 100 (unit not given)
smiles,measurement,setting,value
CCCCCC(C)=O [2-heptanone],DF norm AVERAGE OR10a,Drosophila OR10a,0
same,activation at 1 µM,Drosophila OR10a; [1],3%
same,activation at 10 µM,Drosophila OR10a; [2],4%
same,activation at 100 µM,Drosophila OR10a; [3],4%
same,activation at 1 µM,Drosophila OR10a; [4],0%
same,activation at 10 µM,Drosophila OR10a; [5],0%
same,activation at 100 µM,Drosophila OR10a; [6],0%
same,EC50,"Drosophila OR85b; AVERAGE EC50, from average LOG EC50, N 5",68.9 µM
same,EC50,"Drosophila OR85b; EC50 (fitted parameter), individual biological replicates",50.9 µM and 47.5 µM and 41.7 µM and 42.2 µM
same,EC50,"Drosophila OR85b; EC50, AVERAGE, arithmetic average of 5 replicate EC50",110 µM
same,EC50,"Drosophila OR85b; EC50, FITTED AVERAGE CURVE, fit to the average curve",72.2 µM
same,EC50,"Drosophila OR85b; EC50, OR85b cell line, fitted Hill equation, Hill coefficient constrained to 1, maximal response max 1",68.9 µM
same,activation at 1 µM,Drosophila OR85b; [7],4%
same,activation at 10 µM,Drosophila OR85b; [7],20%
same,activation at 100 µM,Drosophila OR85b; [7],55%
same,activation at 1 µM,Drosophila OR85b; [8],0%
same,activation at 10 µM,Drosophila OR85b; [8],20%
same,activation at 100 µM,Drosophila OR85b; [8],55%
same,Emax,"Drosophila OR85b; HEK293, read-out: VUAA1 normalized MAX response",72%
same,EC50,"Drosophila OR85b; LOG EC50 (fitted parameter), individual biological replicates, OR85b D-R sheet",50.9 µM and 47.5 µM and 41.7 µM and 42.2 µM
same,EC50,"Drosophila OR85b; LOG EC50, AVERAGE, average of 5 biological replicates",68.9 µM
same,Average response,Drosophila OR85b; cc. 1 µM,0.037
same,Average response,Drosophila OR85b; cc. 10 µM,0.20
same,Average response,Drosophila OR85b; cc. 100 µM,0.55
same,"response, AVERAGE",Drosophila OR85b; [9],0
same,"response, biological replicates",Drosophila OR85b; [9],0
same,"response, AVERAGE",Drosophila OR85b; [10],0
same,"response, biological replicates",Drosophila OR85b; [10],0
same,"response, AVERAGE",Drosophila OR85b; [11],0.02418
same,"response, biological replicates",Drosophila OR85b; [11],0 (3×) and 0.06045 (2×)
same,"response, AVERAGE",Drosophila OR85b; [12],0
same,"response, biological replicates",Drosophila OR85b; [12],0
same,"response, AVERAGE",Drosophila OR85b; [13],0
same,"response, biological replicates",Drosophila OR85b; [13],0
same,"response, AVERAGE",Drosophila OR85b; [14],0.05175
same,"response, biological replicates",Drosophila OR85b; [14],0 (2×) and 0.08029 and 0.08922 (2×)
same,"response, AVERAGE",Drosophila OR85b; [15],0.07565
same,"response, biological replicates",Drosophila OR85b; [15],0.1715 and 0 and 0.05971 and 0.07351 (2×)
same,"response, AVERAGE",Drosophila OR85b; [16],0.1574
same,"response, biological replicates",Drosophila OR85b; [16],0.2412 and 0.05753 and 0.1726 and 0.1579 (2×)
same,"response, AVERAGE",Drosophila OR85b; [17],0.2822
same,"response, biological replicates",Drosophila OR85b; [17],0.4423 and 0.101 and 0.2153 and 0.3264 (2×)
same,"response, AVERAGE",Drosophila OR85b; [18],0.3295
same,"response, biological replicates",Drosophila OR85b; [18],0.5597 and 0.152 and 0.2767
same,"response, AVERAGE",Drosophila OR85b; [19],0.3923
same,"response, biological replicates",Drosophila OR85b; [19],0.6627 and 0.1546 and 0.3278 and 0.4082 (2×)
same,"response, AVERAGE",Drosophila OR85b; [20],0.3199
same,"response, biological replicates",Drosophila OR85b; [20],0.2321 and 0.3319 and 0.3577 (2×)
same,AVERAGE MAX,Drosophila OR85b; average of 5 biological replicates,0.7284
same,DF norm AVERAGE OR85b,Drosophila OR85b; concentration 1,0
same,DF norm AVERAGE OR85b,Drosophila OR85b; concentration 10,0.1962
same,DF norm AVERAGE OR85b,Drosophila OR85b; concentration 100,0.5508
same,"MAX, fitted average curve",Drosophila OR85b; fit to the average curve,0.6682
same,MAX (fitted parameter),Drosophila OR85b; individual biological replicates,1 (2×) and 0.5003 and 0.5695 and 0.5722
CCCCC(C)O (stereo not shown) [2-hexanol],DF norm AVERAGE OR10a,Drosophila OR10a,0
same,activation at 1 µM,Drosophila OR10a; [1],2.54%
same,activation at 10 µM,Drosophila OR10a; [2],0%
same,activation at 100 µM,Drosophila OR10a; [3],0%
same,activation at 1 µM,Drosophila OR10a; [4],0%
same,activation at 10 µM,Drosophila OR10a; [5],0%
same,activation at 100 µM,Drosophila OR10a; [6],0%
same,activation at 1 µM,Drosophila OR85b; [8],0%
same,activation at 10 µM,Drosophila OR85b; [8],0%
same,activation at 100 µM,Drosophila OR85b; [8],0%
same,Average response,Drosophila OR85b; cc. 1 µM,0.05
same,Average response,Drosophila OR85b; cc. 10 µM,0.00
same,Average response,Drosophila OR85b; cc. 100 µM,0.00
same,DF norm AVERAGE OR85b,Drosophila OR85b; concentration 1,0
same,DF norm AVERAGE OR85b,Drosophila OR85b; concentration 10,0
same,DF norm AVERAGE OR85b,Drosophila OR85b; concentration 100,0
